The structures appear in SMILES notation. Where two headings read alike, the source gives them in different places. A value given as a limit tells only on which side of the number the result lay.

In one series the target is T1, integrase (Human immunodeficiency virus type 1 group M subtype B, UniProt P04585).
T1 construct: Each reaction (40 ul) contains 30 nM substrate DNA ad 400 ng integrase
In words: HIV integrase 3′ processing/strand transfer assay (IC50). The class given is biochemical. As to the method: A combined 3′-processing/strand transfer assay procedure similar to that published (Ovenden et al. Phytochemistry. 2004 December; 65(24):3255-9.) could be used. The assay could be adapted to a 96 well plate format. Briefly, 400 ng of […] is incubated with 30 nM substrate DNA, consisting of annealed U5 LTR sequence oligonucleotides tagged with Digoxigenin (DIG; 5′-[…]-DIG-3′ (SEQ ID NO: 1)) or biotin (5′-Bio-[…]-3′ (SEQ ID NO: 2)) so that each substrate has either a DIG or Bio tag on opposite strands. Reactions are carried out for 2 hrs at 37° C., products generated as a result of 3′ processing and strand transfer activity are bound to streptavidin plates and detected with using anti-DIG-alkaline phosphatase conjugate and p-nitro phenyl phosphate substrate.
The strand transfer specific assay is of similar format to that of the 3′ processing/strand transfer combined assay except that it uses a biotinylated substrate that represents a pre-processed LTR end (5′-Bio-[…]-3′ (SEQ ID NO: 3)).
Oligonucleotides 5′-biotin-[…]-3′ (SEQ ID NO: 3) and 5′-[…]-Dig-3′ (SEQ ID NO: 1) are annealed in 10 mM Tris-Cl pH8.0, 100 mM NaCl, 2 mM EDTA at a final concentration of 30 uM.
Each reaction (40 ul) contains 30 nM substrate DNA ad 400 ng integrase in a reaction buffer comprising 20 mM Tris-Cl pH7.5, 25 mM NaCl, 5 mM MnCl2, 5 mM MgCl2, 5 mM B-ME, 50 ug/mL BSA, 0.05% (v/v) Tween-20.
Compounds are added in DMSO at 1/10 final reaction volume.
Reactions are incubated at 37° C. for 2 hr followed by the addition of 60 ul adjustment buffer containing 33 mM Tris-Cl pH 7.5, 664 mM NaCl, 16.6 mM EDTA, 0.166 mg/mL sonicated salmon sperm DNA.
The samples are then transferred to Streptavidin coated plates and products of the enzyme reactions are allowed to bind for 1 hr at room temperature.
Plates are then washed with 3×5 min with 30 mM NaOH, 200 mM NaCl, 1 mM EDTA then 3×5 min with wash 2: 10 mM Tris-Cl pH8.0, 6 mM EDTA, 0.1 mg/mL nuclease free BSA.
Anti-digoxigenin-phosphatase Fab (Roche, 0.1 U/mL)), diluted 1/2000 in wash 2 buffer is then added to each well and plates incubated 1 hr at 37° C.
Plates are then washed 3 times with TBS— Tween-20 (0.1%) then twice with TBS and 100 ul substrate (1 mg/mL p-nitrophenylphosphate in 0.1M Tris, pH 9.8) is added and plates incubated until sufficient colour is developed.

Series [1] can be described thus: Compound cytotoxicity (CC50). Particulars: wells without virus. In kind it is cell-based. On the procedure: (§1) Cells are seeded into 96 well microtitre plates at 50,000 cells per 50 μl per well in RF-containing […] polybrene (RF-10/2). Compounds are prepared to 4× final concentration in RF-10/2, and 30 L added to cells. Virus (40 L in RF-10/2 containing 1600 pfu) is added to each well or 40 L RF-10/2 for negative controls and for assaying compound cytotoxicity. After 24 hrs, an additional 90 μL of media or media containing 1× compound is added to each well. At 4 days post infection, 100 μL of media is removed from each well and replaced with 100 μl of fresh media with or without compound. Forty eight hours later supernatants are harvested and levels of extracellular p24 determined. Supernatants are diluted 1 in 10,000 and p24 levels assayed using the Vironostika p24 assay kit. EC50 is calculated as the concentration required to inhibit HIV p24 production to 50% that of no drug controls.

The subject of a further series is HIV. In words: Inhibition of HIV replication (p24). In kind it is cell-based. Particulars: Human immunodeficiency virus 1; concentration inhibiting HIV p24 production to 50% of no drug controls. As to the method: as §1
The target of series [2] is T2, HIV integrase enzyme (Q148K) (Human immunodeficiency virus type 1 group M subtype B, UniProt P04585, Q1295K). Particulars: Q148K mutant enzyme; cited from earlier work.
Series [3] deals with T2, HIV integrase enzyme (Q148K). In words: Strand transfer assay, mutant (Q148K) HIV integrase. Particulars: FIG. 1. In kind it is biochemical. On the procedure: A strand transfer assay procedure similar to that published (Ovenden et al. Phytochemistry. 2004 December; 65(24):3255-9.) is used. Briefly, 400 ng of the enzyme, wild type or drug resistant mutant, is mixed with the compound to be tested and incubated with 30 nM substrate DNA. The substrate DNA is designed to mimic HIV DNA termini that has undergone 3′ end processing, and consists of the annealed U5 LTR sequence oligonucleotides tagged with Digoxigenin (DIG; 5′-[…]-DIG-3′ (SEQ ID NO: 1)) or biotin (5′-Bio-[…]-3′ (SEQ ID NO: 3)) so that each substrate has either a DIG or Bio tag on opposite strands. Reactions are carried out for 1 hr at 37° C. Products generated as a result of strand transfer activity are bound to streptavidin plates and detected using anti-DIG-alkaline phosphatase conjugate and p-nitro phenyl phosphate substrate.
FIG. 1 represents as an example, strand transfer assay results from selected compounds against wild-type integrase and the integrase containing the Q148K mutation.
HIV integrase was mutated within a shuttle vector (pGEM) containing the majority of the HIV-I gag and pol sequence using site directed mutagenesis to generate integrase sequences that have been published as conferring resistance to published integrase inhibitors. These include, but are not limited to, mutations such as Q148K. […]

The mark [4] stands for this setting: integrase assay, which of Example 28.1/28.2 not stated, read-out: IC50.

The term IC50 denotes the concentration needed to halve the response being measured. Consider `Cc1ccc2nc(-c3ncc(Cc4ccc(F)cc4)o3)c(O)c(=O)n2c1`, for which the IC50 on integrase (setting [4]) was 1 to 1000 nM.
For orientation: CC50 means the concentration at which the toxic effect on the cells reaches its halfway point. Read a high CC50 as lower toxicity to the cells. As usually defined, the EC50 is the midpoint of the concentration-response curve. Read a low EC50 as a more potent agent. Take `Cc1ccc2nc(C(=O)NCc3ccc(Cl)c(Cl)c3)c(O)c(=O)n2c1` [7-Me, CONHCH2 (3,4-ClPh), 3-Hydroxy-7-methyl-4-oxo-4H-pyrido[1,2-a]pyrimidine-2-carboxylic acid 3,4-dichloro-benzylamide]: on integrase, the IC50 lay in the range of 1 to 1000 nM. This molecule registered a CC50 at 6 days in series [1] of more than 1000 nM. Besides, the EC50 in the series on HIV was 1 to 1000 nM.
As for `Cc1ccc2nc(-c3noc(Cc4ccc(F)cc4)n3)c(O)c(=O)n2c1`, at integrase (setting [4]), the 50% inhibitory concentration (IC50) was in the range of 1 to 1000 nM.
For `Cc1nnc(C(=O)NC(C)(C)c2nc(C(=O)NCc3ccc(F)cc3)c(O)c(=O)n2C)o1` [Raltegravir], the “resistance of Q148K HIV integrase to published integrase inhibitors” value in series [2] is reported as “resistant”.
Regarding `Cc1ccc2nc(-c3nnc(-c4ccccc4)o3)c(O)c(=O)n2c1`, the IC50 on integrase (setting [4]) was more than 1000 nM.
Still for that read-out and setting: to `Cc1ccc2nc(-c3nnc(Cc4ccc(F)cc4)s3)c(O)c(=O)n2c1` belongs 1 to 1000 nM.
The molecule `O=C(NCc1ccc(F)cc1)c1nc2ccc(Br)cn2c(=O)c1O` [7-Br, CONHCH2 (4F-Ph), 7-Bromo-3-hydroxy-4-oxo-4H-pyrido[1,2-a]pyrimidine-2-carboxylic acid 4-fluoro-benzylamide] displayed a half-maximal inhibitory concentration (IC50) against integrase of 1000 to 10000 nM. Besides, the 50% cytotoxic concentration (CC50) at 6 days in series [1] was more than 1000 nM. The EC50 in the series on HIV was 1 to 1000 nM.
Consider `Cc1ccc2nc(-c3ncc(-c4ccc(F)cc4)o3)c(O)c(=O)n2c1`, for which the IC50 on integrase (setting [4]) is more than 1000 nM.
For `O=C(NCc1ccc(Cl)c(Cl)c1)c1nc2ccc(N3CCOCC3)cn2c(=O)c1O` [Example 6.13, 3-Hydroxy-7-morpholin-4-yl-4-oxo-4H-pyrido[1,2-a]pyrimidine-2-carboxylic acid 3,4-dichloro-benzylamide], in series [3], the “activity against HIV integrase enzyme (Q148K)” value is “particularly high activity”.
Molecule `Cc1ccc2nc(C(=O)NCc3ccc(F)cc3)c(O)c(=O)n2c1` [7-Me, CONHCH2 (4F-Ph), 3-Hydroxy-7-methyl-4-oxo-4H-pyrido[1,2-a]pyrimidine-2-carboxylic acid 4-fluoro-benzylamide] gave an IC50 at integrase of 1000 to 10000 nM. Besides, the half-maximal cytotoxic concentration (CC50) at 6 days in series [1] is more than 1000 nM. Also, the EC50 in the series with HIV is 1 to 1000 nM.

(Values after patent publication US8143268B2, “Bicyclic pyrimidinones and uses thereof” (Avexa Limited, priority 2006, dated 2012).)
